According to US7538129B2, “Diazonamide A analog” (Board of Regents, The University of Texas System, priority 2005, dated 2009):
Entries after “also recorded” stand apart in the source; their conditions may differ.

How the values were obtained:
Format in all cases: in vivo, mice
HCT116 xenografts = assay: growth inhibition of HCT116 xenografts; settings: for #Tumor Free (day) / % Max T/C / Log10 Tumor Cell Kill: HCT116 (colon)
Method: Details of the preparation of murine models containing xenografts of HCT116 cells or PC-3 cells are described in the section following these examples. After the tumors were grown, therapy utilizing Compound J or paclitaxel was initiated. […] In FIG. 4A, the *'s represent control mice, the squares represent 5 mg/kg Compound J; the diamonds represent 20 mg/kg Compound J; and the slanted line represents 20 mg/kg paclitaxel.
The details of the protocol for Examples 19 and 20 are as follows:
• PC3 prostrate tumor cells and HCT116 colon tumor cells (acquired from the tumor repository Division of Cancer Treatment and Diagnosis (DCTD) of the NCI • Complete RPMI Media • RPMI (Cat# 11875-085, Invitrogen) • 10% Heat-inactivated (30′ 56° C.) Fetal Bovine Serum (Cat# 100-106, Gemini Bio-Products • 2 mM L-glutamine (Cat# 25030-081, Invitrogen) • 0.1 mM MEM Non-Essential Amino Acids Solution (Cat#11140-050, Invitrogen) • 10 U/ml Penicillin/10 μg/ml Streptomycin (Cat#15140-122, Invitrogen) • 1 mM Sodium Pyruvate (Cat#l 1360-070) • Trypsin-EDTA (Cat#25300-054, Invitrogen) • Ca^2+/Mg^2+-free Phosphate Buffered Saline, 5% dextrose in water • Cell Culture Dish 150 mm×25 mm (Cat# 430599, Coming, Inc.) • 10 and 25 ml pipets, standard pipet-aid, p200 and p1000 pipette tips and standard pipetmen • Athymic NCr-nu/nu nude mice at 6-12 weeks of age, either sex (Strain code: 01B74, NCI Frederick Animal Production Program—suppliers include Charles River Labs and Taconic Farms). Female mice of approximately 7 weeks of age were utilized for existing experiments. • Standard 1 cc tuberculin syringe, 30G½ and 25G⅝ needles (Becton Dickinson) • Falcon 5 ml tubes (Cat#352054) • 50 and 15 ml disposable plastic conical tubes (Falcon or similar vendor) • Trypan Blue Solution (0.4%) (Cat#T8154, Sigma) • Hausser phase contrast hemacytometer (Cat# 02-671-54, Fisher) • Ice bucket • Balance for weighing mice (accurate to 0.2 g) • Vernier calipers • Vivarium facility free from known pathogens (nude mice should be housed in isolation from conventional mice if possible—separate rooms or micro-isolator cages equipped with individual air flow; all animal housing, bedding, water should be autoclaved prior to use; standard irradiated mouse chow should be used; animals should be changed out of cages within laminar flow hood; investigators handling mice should be suitably garbed—disposable gown, bonnet, booties, gloves, mask) • AB-5 (Compound J) compound • Ethyl alcohol, 200 proof (Aaper, MFD 041205) • Cremaphor (Cat# C5135, Sigma) • Paclitaxel (Cat#ANP0010, Polymed Therapeutics) Procedure: • 1) Rapidly thaw PC3 or HCT116 cells (if necessary) in 37° C. water bath. Transfer contents to 9ml complete RPMI media. Spin 5′ at 1200 rpm (240 Xg). Discard media and resuspend pellet in 8 ml complete RPMI media. Plate in 100 mm×25 mm cell culture dish in 5% CO2, 37° C. humidified incubator. • 2) Allow to grow for 5-10 days, splitting (aspirate media, wash with 3-5 ml PBS, add 1 ml trypsin-EDTA, incubate 3-5′ at 37° C., add media to desired volume and transfer to multiple plates) 1:8 to 1:10 every 3-4 days as necessary to allow cells to enter phase of logarithmic growth. • 3) When cells are growing well, begin to expand to 150 mm×25 mm dishes. We use 20 ml of media in a 150 mm dish and use 2 ml of trypsin for splitting. When nearly confluent, there should be 2×10^7 cells/150 mm dish. • 4) Plan ahead to time arrival of nu/nu mice such that they can acclimate to animal facility for 1 week prior to injection of tumor cells. […] Plan to inject 10 million cells/mouse and allow for loss of cells/volume during injection process. That is, if 30 mice are to be injected, plan to harvest cells sufficient for at least 35 injections—35×10 million cells=3.5×10^8 cells. In the existing HCT116 experiment, 7.5×10^6 cells were injected per mouse. Five mice per group were utilized for AB-5 treatment and four mice per group were utilized for the control and paclitaxel treatments. […]

[1] = system: neutrophils (GR1+ cells) in bone marrow; assay: neutrophil counts in bone marrow; settings: for neutrophil counts in bone marrow: 5 mg/kg; for neutrophil counts in bone marrow (number of GR1+ cells in one femu): 20 mg/kg, FIG. 5A
Description: In addition to measuring the affect on tumors, the effect of paclitaxel and Compound J on neutrophils in […] and blood were obtained. […] The data are provided as the number of GR1+ cells in one femu.
(§1) The details of the protocol for Examples 19 and 20 are as follows: […]

[2] = system: neutrophils in peripheral blood; assay: neutrophil count in peripheral blood; settings: for neutrophil count in peripheral blood, ANC (cell/ml): FIG. 5B
Description: as §1

Compound | inhibition of growth of HCT116 xenografts (HCT116 xenografts; FIG. 4A, 20 mg/kg IV) | #Tumor Free (day) (HCT116 xenografts; 5 mg/kg, IP) | % Max T/C (HCT116 xenografts; 5 mg/kg, IP) | Log10 Tumor Cell Kill (HCT116 xenografts; 5 mg/kg, IP) | #Tumor Free (day) (HCT116 xenografts; 5 mg/kg, IV) | % Max T/C (HCT116 xenografts; 5 mg/kg, IV) | Log10 Tumor Cell Kill (HCT116 xenografts; 5 mg/kg, IV) | #Tumor Free (day) (HCT116 xenografts; 20 mg/kg, IP) | % Max T/C (HCT116 xenografts; 20 mg/kg, IP) | Log10 Tumor Cell Kill (HCT116 xenografts; 20 mg/kg, IP) | % Max T/C (HCT116 xenografts; 20 mg/kg, IV) | Log10 Tumor Cell Kill (HCT116 xenografts; 20 mg/kg, IV) | animals free of tumors (HCT116 xenografts; free of tumors for over five months) | weight loss (HCT116 xenografts; tumor-free animals, over five months) | neutrophil counts in bone marrow [1] | neutrophil counts in bone marrow (number of GR1+ cells in one femu) [1] | neutrophil proliferation or cell counts in vivo ([1]; FIG. 5A legend) | neutrophil count in peripheral blood, ANC (cell/ml) ([2]; 5 mg/kg) | neutrophil count in peripheral blood, ANC (cell/ml) ([2]; 20 mg/kg) | neutrophil proliferation or cell counts in vivo ([2]; FIG. 5B legend)
CC(C)[C@H](O)C(=O)N[C@H]1Cc2ccc3c(c2)[C@]24C5=C(N=C(O5)[C@H](C(C)C)NC1=O)c1ncc(o1)-c1c[nH]c5cccc(c15)-c1cccc2c1NC4O3 (stereo in doubt) [Compound J] | comparable to paclitaxel; also recorded: slows tumor growth in a manner similar to paclitaxel | 0/5 | 41.9% | 0.37 | 0/5 | 26.5% | 0.54 | 0/5 | 9.3% | 1.0 | 0.2% | 1.8 | four of 10 | no weight loss | no effect | no effect | no effect | no effect; also recorded: not significantly affected | no effect; also recorded: not significantly affected | no effect
CC(=O)O[C@H]1C(=O)[C@@]2(C)[C@H]([C@H](OC(=O)c3ccccc3)[C@]3(O)C[C@H](OC(=O)[C@H](O)[C@@H](NC(=O)c4ccccc4)c4ccccc4)C(C)=C1C3(C)C)[C@]1(OC(C)=O)CO[C@@H]1C[C@@H]2O [paclitaxel, reference compound] | – | – | – | – | – | – | – | – | – | – | 0.2% | 3.2 | – | – | reduction of neutrophil counts | reduction of neutrophil counts; also recorded: significantly lowered | – | reduction of neutrophil counts; also recorded: greatly lowered | reduction of neutrophil counts; also recorded: greatly lowered | –
